Entries after “also recorded” stand apart in the source; their conditions may differ.
Assays:
[1] = test system: BxPC-3; assay: fructose-induced proliferation of pancreatic cancer cells BxPC-3; type: cell-based; settings: 6 mM fructose culture
[2] = test system: HCT-116; assay: malignant proliferation of colorectal cancer cells HCT-116; type: cell-based; settings: 6 mM fructose culture
[3] = test system: AML mice (murine leukemic cells with AML1-ETO and mutated C-KIT); assay: AML model mice; type: in vivo, BALB/c female mice
Experimental: AML mice were generated using a previously reported procedure (Wang et al., 2011) with minor modifications. About 1×10^5 GFP-positive murine leukemic cells (splenic cells) with AML1-ETO and mutated C-KIT were injected into the tail vein of each sublethally irradiated (3.5 Gy), 8 week old BALB/c female mice. On day 5 after inoculation of AML cells, 2,5-AM was injected intraperitoneally at a dose of 150 mg/kg/day for continuous administration to mice. Control group AML mice were given saline injection according to the same dose and method.
chemotherapeutic drug cytarabine on the treatment of AML model mice (Ara-C) was administered intraperitoneally at a dose of 25 mg/kg/day on the third day in the AML model mice (see example 3) for 3 days after AML cell inoculation. At the same time, mice were intraperitoneally injected with 2,5 AM at a dose of 150 mg/kg/day on day 5 after AML cell inoculation, until mice were dead. (2) Ara-C alone group: In the AML model mice of Example 3, Ara-C was injected intraperitoneally at a dose of 25 mg/kg/day on the third day after AML cell inoculation for 3 days.

[4] = test system: U937-SLC2A5 cells (overexpressing the fructose transporter SLC2A5); assay: colony formation of U937-SLC2A5 cells; type: cell-based; settings: 6 mM fructose or 6 mM fructose+0.75 mM glucose
[5] = test system: U937-SLC2A5 cells (overexpressing the fructose transporter SLC2A5); assay: cell migration of U937-SLC2A5 cells; type: cell-based; settings: 6 mM fructose or 6 mM fructose+0.75 mM glucose
[6] = test system: U937; assay: proliferation of AML cells U937; type: cell-based
Experimental: (§1) In cell culture conditions with 6 mM fructose or 6 mM fructose+0.75 mM glucose, 2,5-AM could inhibit the proliferation of four AML cells, including U937, OCI-AML3, HL-60 and K562 cells.

[7] = test system: CFPAC-1; assay: fructose-induced proliferation of pancreatic cancer cells CFPAC-1; type: cell-based; settings: 6 mM fructose culture
[8] = test system: K562; assay: proliferation of AML cells K562; type: cell-based
[9] = test system: OCI-AML3; assay: proliferation of AML cells OCI-AML3; type: cell-based
Experimental: as §1

[10] = test system: cancer cells; assay: fructose and glucose utilization by cancer cells; type: cell-based
Description: The present inventors have discovered, for the first time, the important role of GLUTS-mediated fructose metabolism in the malignant progression of cancer, and the close relationship with the prognosis of the cancer patients, through extensive and in-depth research and clinical data analysis. […] Furthermore, 2,5-AM may reverse the malignant phenotypes of AML cells by synergizing with conventional chemotherapeutic cytarabine or glucose analogue 2-deoxy-glucose (2-DG). […] Moreover, 2,5-AM and cytarabine in AML mice also have a significant synergistic effect. Through the above work, the present inventors have determined the administration of 2,5-AM to AML, pancreatic cancer, and colorectal cancer, including the dosage, the route of administration and the duration of administration; and the combined use of 2,5-AM and conventional chemotherapeutic agents or 2-DG methods for cancer treatment.

[11] = test system: AML cells; assay: fructose utilization in AML cells in vitro; type: cell-based; settings: in vitro cell experiments
Description: Enhanced fructose metabolism mediated by GLUTS exacerbates the malignant phenotype of AML cells, including increased cell proliferation, enhanced colony formation, and increased mobility and infiltration of AML cells (FIG. 3A-3D). […] Additionally 2,5-AM can kill AML cells in concert with conventional chemotherapeutic agents (FIG. 7A-7G).

[12] = test system: HCT-15; assay: malignant proliferation of colorectal cancer cells HCT-15; type: cell-based; settings: 6 mM fructose culture
[13] = test system: PANC-1; assay: fructose-induced proliferation of pancreatic cancer cells PANC-1; type: cell-based; settings: 6 mM fructose culture
[14] = test system: HL-60; assay: proliferation of AML cells HL-60; type: cell-based
Experimental: as §1

[15] = test system: U937-SLC2A5 cells (overexpressing the fructose transporter SLC2A5); assay: malignant proliferation of AML cells U937-SLC2A5; type: cell-based; settings: 6 mM fructose or 6 mM fructose+0.75 mM glucose
[16] = 150 mg/kg/day intraperitoneally from day 5, compared with saline control group
[17] = 6 mM fructose or 6 mM fructose+0.75 mM glucose

OC[C@H]1O[C@H](CO)[C@@H](O)[C@@H]1O [2,5-AM, 2,5-anhydro-D-mannitol]
proliferation of BxPC-3 [1]: significantly inhibited | malignant proliferation of HCT-116 [2]: significantly inhibited | bone marrow leukemia cells [3, 16]: significantly inhibited | hemoglobin [3, 16]: significantly increased | overall survival of mice [3, 16]: significantly prolonged | peripheral blood leukemia cells [3, 16]: significantly inhibited | peripheral blood red blood cell count [3, 16]: significantly increased | peripheral white blood cells [3, 16]: significantly inhibited | platelet count [3, 16]: significantly increased | spleen enlargement [3, 16]: significantly relieved | fructose utilization by AML cells in vivo ([3]; mouse in vivo experiments): significantly inhibited | colony formation [4]: significantly inhibited | cell migration [5]: significantly inhibited | malignant proliferation of U937 [6, 17]: significantly inhibited; also recorded: could inhibit | cell proliferation of U937 ([6]; 6 mM glucose): almost unaffected | proliferation of CFPAC-1 [7]: significantly inhibited | malignant proliferation of K562 [8, 17]: significantly inhibited; also recorded: could inhibit | cell proliferation of K562 ([8]; 6 mM glucose): almost unaffected | malignant proliferation of OCI-AML3 [9, 17]: significantly inhibited; also recorded: could inhibit | cell proliferation of OCI-AML3 ([9]; 6 mM glucose): almost unaffected | fructose utilization by cancer cells [10]: competitively inhibits | glucose utilization [10]: little effect | fructose utilization in AML cells [11]: blocked | malignant proliferation of HCT-15 [12]: significantly inhibited | proliferation of PANC-1 [13]: significantly inhibited | malignant proliferation of HL-60 [14, 17]: significantly inhibited; also recorded: could inhibit | cell proliferation of HL-60 ([14]; 6 mM glucose): almost unaffected | malignant proliferation of AML cells U937-SLC2A5 [15]: significantly inhibited
